Measurements: patent US12421211B2, “Heterocyclic compounds” (Hoffmann-La Roche Inc., priority 2021, dated 2025)
Structures can show the parent of a compound that is named as a salt.

What follows are compounds tested on Acinetobacter baumannii ATCC17961 (assay: Antimicrobial susceptibility testing: 90% growth inhibitory concentration (IC90) determination). Conditions: Acinetobacter baumannii, ATCC17961, 16 h, 90% growth inhibitory concentration, Acinetobacter baumannii ATCC17961, Iso-Sensitest broth, OD 600 nm over 16 h; read-out: ATCC 17961 IC90.
Type: cell-based
In short: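 Growth inhibition derived in log phase from OD600 kinetics (every 20 minutes, 16h, 35±2° C) of ATCC17961 in Iso-Sensitest medium, inoculum ~5×10^5 CFU/ml. Compounds tested as twofold series, 10 points (e.g. 50 to 0.097 μM final); IC90 and IC50 reported.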
`COCCn1ncc(-c2ccc(-c3cnc(C(=O)Nc4ccc(C(=O)N5CCN(C(=O)[C@@H]6C[C@@H](O)CN6)CC5)c(Cl)c4)n3C)c(F)c2F)c1C` [Example E9, N-[3-chloro-4-[4-[(2S,4R)-4-hydroxypyrrolidine-2-carbonyl]piperazine-1-carbonyl]phenyl]-5-[2,3-difluoro-4-[1-(2-methoxyethyl)-5-methyl-pyrazol-4-yl]phenyl]-1-methyl-imidazole-2-carboxamide; 2,2,2-trifluoroacetic acid] gave an IC90 of 65 nM.
`Cc1n[nH]cc1-c1ccc(-c2cnc(C(=O)Nc3ccc(C(=O)N4CCC(CN5CC[N+](C)(C)CC5=O)CC4)c(Cl)c3)n2C)c(F)c1F` [Example D21, N-[3-chloro-4-[4-[(4,4-dimethyl-2-oxo-piperazin-4-ium-1-yl)methyl]piperidine-1-carbonyl]phenyl]-5-[2,3-difluoro-4-(3-methyl-1H-pyrazol-4-yl)phenyl]-1-methyl-imidazole-2-carboxamide; formate] gave an IC90 of 200 nM.
`COCCn1cc(-c2ccc(-c3cnc(C(=O)Nc4ccc(C(=O)N5CCN(C(=O)[C@H]6C[C@H](O)C[N+]6(C)C)CC5)c(Cl)c4)n3C)c(F)c2F)c(C)n1` [Example D8, N-[3-chloro-4-[4-[(2R,4S)-4-hydroxy-1,1-dimethyl-pyrrolidin-1-ium-2-carbonyl]piperazine-1-carbonyl]phenyl]-5-[2,3-difluoro-4-[1-(2-methoxyethyl)-3-methyl-pyrazol-4-yl]phenyl]-1-methyl-imidazole-2-carboxamide; formate] gave an IC90 of 300 nM.
Compound `COCCn1ncc(-c2ccc(-c3cnc(C(=O)Nc4ccc(C(=O)N5CCN(C(=O)[C@@H]6C[C@@H](O)C[N+]6(C)C)CC5)c(C)c4)n3C)c(F)c2F)c1C` [Example F14, 5-[2,3-difluoro-4-[1-(2-methoxyethyl)-5-methyl-pyrazol-4-yl]phenyl]-N-[4-[4-[(2S,4R)-4-hydroxy-1,1-dimethyl-pyrrolidin-1-ium-2-carbonyl]piperazine-1-carbonyl]-3-methyl-phenyl]-1-methyl-imidazole-2-carboxamide; 2,2,2-trifluoroacetate] has an IC90 of 100 nM.
With `COCCn1ncc(-c2ccc(-c3cnc(C(=O)Nc4ccc(C(=O)N5CCN(C(=O)N6CC[N+](CC(=O)O)(CC7CNC7)CC6)CC5)c(Cl)c4)n3C)c(F)c2F)c1C` [Example B38, 2-[1-(azetidin-3-ylmethyl)-4-[4-[2-chloro-4-[[5-[2,3-difluoro-4-[1-(2-methoxyethyl)-5-methyl-pyrazol-4-yl]phenyl]-1-methyl-imidazole-2-carbonyl]amino]benzoyl]piperazine-1-carbonyl]piperazin-1-ium-1-yl]acetic acid; formate] the IC90 was 300 nM.
Compound `Cc1n[nH]cc1-c1ccc(-c2cnc(C(=O)Nc3ccc(C(=O)N4CCN(C(=O)C[N+](C)(C)C)CC4)c(Cl)c3)n2C)cc1` [Example F51, [2-[4-[2-chloro-4-[[1-methyl-5-[4-(3-methyl-1H-pyrazol-4-yl)phenyl]imidazole-2-carbonyl]amino]benzoyl]piperazin-1-yl]-2-oxo-ethyl]-trimethyl-ammonium; formate] has an IC90 of 210 nM.
With `Cc1nn(CCn2ccccc2=O)cc1-c1ccc(-c2cnc(C(=O)Nc3ccc(C(=O)N4CCN(C(=O)C5CC[N+](C)(C)CC5)CC4)c(Cl)c3)n2C)c(F)c1F` [Example F46, N-[3-chloro-4-[4-(1,1-dimethylpiperidin-1-ium-4-carbonyl)piperazine-1-carbonyl]phenyl]-5-[2,3-difluoro-4-[3-methyl-1-[2-(2-oxo-1-pyridyl)ethyl]pyrazol-4-yl]phenyl]-1-methyl-imidazole-2-carboxamide; formate] the IC90 was 1100 nM.
With `COCCn1ncc(-c2ccc(-c3cnc(C(=O)Nc4ccc(C(=O)N5CCN(C(=O)C6CCNCC6O)CC5)c(Cl)c4)n3C)c(F)c2F)c1C` (stereo not shown) [Example D25, N-[3-chloro-4-[4-(3-hydroxypiperidine-4-carbonyl)piperazine-1-carbonyl]phenyl]-5-[2,3-difluoro-4-[1-(2-methoxyethyl)-5-methyl-pyrazol-4-yl]phenyl]-1-methyl-imidazole-2-carboxamide; formic acid] the IC90 was 51 nM.
`COCCn1cc(-c2ccc(-c3cnc(C(=O)Nc4ccc(C(=O)N5CCC(NC(=O)[C@@H]6C[C@@H](O)CN6)CC5)c(Cl)c4)n3C)c(F)c2F)c(C)n1` [Example D23, N-[3-chloro-4-[4-[[(2S,4R)-4-hydroxypyrrolidine-2-carbonyl]amino]piperidine-1-carbonyl]phenyl]-5-[2,3-difluoro-4-[1-(2-methoxyethyl)-3-methyl-pyrazol-4-yl]phenyl]-1-methyl-imidazole-2-carboxamide; formic acid] showed an IC90 of 680 nM.
Compound `COc1ccccc1NC(=O)Cn1cc(-c2ccc(-c3cnc(C(=O)Nc4ccc(C(=O)N5CCN(C(=O)C6CC[N+](C)(C)CC6)CC5)c(Cl)c4)n3C)c(F)c2F)c(C)n1` [Example G7, N-[3-chloro-4-[4-(1,1-dimethylpiperidin-1-ium-4-carbonyl)piperazine-1-carbonyl]phenyl]-5-[2,3-difluoro-4-[1-[2-(2-methoxyanilino)-2-oxo-ethyl]-3-methyl-pyrazol-4-yl]phenyl]-1-methyl-imidazole-2-carboxamide; formate] has an IC90 of 550 nM.
Work on `COCCn1nc(C)c(-c2ccc(-c3cnc(C(=O)Nc4ccc(C(=O)N5CCN(C(=O)C6CC[N+](C)(C)CC6)CC5)c(Cl)c4)n3C)cc2)c1C` [Example A3, N-[3-chloro-4-[4-(1,1-dimethylpiperidin-1-ium-4-carbonyl)piperazine-1-carbonyl]phenyl]-5-[4-[1-(2-methoxyethyl)-3,5-dimethyl-pyrazol-4-yl]phenyl]-1-methyl-imidazole-2-carboxamide; formate] yielded an IC90 of 230 nM.
For `Cc1c(-c2cnc(C(=O)Nc3ccc(C(=O)N4CCN(C(=O)CCC[N+](C)(CC(=O)O)CC5CNC5)CC4)c(Cl)c3)n2C)ccc(-c2cnn(CCOC(F)F)c2C)c1F` (stereo not shown) [Example N1, azetidin-3-ylmethyl-(carboxymethyl)-[4-[4-[2-chloro-4-[[5-[4-[1-[2-(difluoromethoxy)ethyl]-5-methyl-pyrazol-4-yl]-3-fluoro-2-methyl-phenyl]-1-methyl-imidazole-2-carbonyl]amino]benzoyl]piperazin-1-yl]-4-oxo-butyl]-methyl-ammonium; formic acid; formate], the IC90 was 189 nM.
`Cc1n[nH]cc1-c1ccc(-c2cnc(C(=O)Nc3ccc(C(=O)N4CCN(C(=O)C5CCNCC5)CC4)c(Cl)c3)n2C)c(F)c1F` [Example E19, N-[3-chloro-4-[4-(piperidine-4-carbonyl)piperazine-1-carbonyl]phenyl]-5-[2,3-difluoro-4-(3-methyl-1H-pyrazol-4-yl)phenyl]-1-methyl-imidazole-2-carboxamide] gave an IC90 of 130 nM.
`COCCn1ncc(-c2ccc(-c3cnc(C(=O)Nc4ccc(C(=O)N5CCN(C(=O)C6CCNCC6)CC5)c(Cl)c4)n3C)c(F)c2C)c1C` [Example E3, N-[3-chloro-4-[4-(piperidine-4-carbonyl)piperazine-1-carbonyl]phenyl]-5-[2-fluoro-4-[1-(2-methoxyethyl)-5-methyl-pyrazol-4-yl]-3-methyl-phenyl]-1-methyl-imidazole-2-carboxamide; formic acid] was tested, and the IC90 was 490 nM.

Same assay, conditions: Acinetobacter baumannii, ATCC17961, 16 h, read-out: ATCC 17961 IC90
For `COCCn1cc(-c2ccc(-c3cnc(C(=O)Nc4ccc(C(=O)N5CCN(C(=O)C6CC[N+]7(CCNC(=O)C7)CC6)CC5)c(Cl)c4)n3C)c(F)c2F)c(C)n1` (stereo not shown) [Example Q1, N-[3-chloro-4-[4-(4-oxo-3-aza-6-azoniaspiro[5.5]undecane-9-carbonyl)piperazine-1-carbonyl]phenyl]-5-[2,3-difluoro-4-[1-(2-methoxyethyl)-3-methyl-pyrazol-4-yl]phenyl]-1-methyl-imidazole-2-carboxamide; 2,2,2-trifluoroacetate], the IC90 was 165 nM.
`COCCn1ncc(-c2ccc(-c3cnc(C(=O)Nc4ccc(C(=O)N5CCN(C(=O)CCC[N+](CCCCN)(CCCCN)CC(=O)O)CC5C)c(Cl)c4)n3C)c(F)c2F)c1C` (stereo not shown) [Example O3, bis(4-aminobutyl)-(carboxymethyl)-[4-[4-[2-chloro-4-[[5-[2,3-difluoro-4-[1-(2-methoxyethyl)-5-methyl-pyrazol-4-yl]phenyl]-1-methyl-imidazole-2-carbonyl]amino]benzoyl]-3-methyl-piperazino]-4-keto-butyl]ammonium formate] gave an IC90 of 113 nM.
With `Cc1ccc(NC(=O)Cn2cc(-c3ccc(-c4cnc(C(=O)Nc5ccc(C(=O)N6CCN(C(=O)C7CC[N+](C)(C)CC7)CC6)c(Cl)c5)n4C)c(F)c3F)c(C)n2)nn1` [Example L3, N-[3-chloro-4-[4-(1,1-dimethylpiperidin-1-ium-4-carbonyl)piperazine-1-carbonyl]phenyl]-5-[2,3-difluoro-4-[3-methyl-1-[2-[(6-methylpyridazin-3-yl)amino]-2-oxo-ethyl]pyrazol-4-yl]phenyl]-1-methyl-imidazole-2-carboxamide; formate] the IC90 was 264 nM.
`Cc1nn(CC(=O)NC23CC(C#N)(C2)C3)cc1-c1ccc(-c2cnc(C(=O)Nc3ccc(C(=O)N4CCN(C(=O)C5CC[N+](C)(C)CC5)CC4)c(Cl)c3)n2C)c(F)c1F` [Example G4, N-[3-chloro-4-[4-(1,1-dimethylpiperidin-1-ium-4-carbonyl)piperazine-1-carbonyl]phenyl]-5-[4-[1-[2-[(3-cyano-1-bicyclo[1.1.1]pentanyl)amino]-2-oxo-ethyl]-3-methyl-pyrazol-4-yl]-2,3-difluoro-phenyl]-1-methyl-imidazole-2-carboxamide; formate] gave an IC90 of 190 nM.
`COCCn1ncc(-c2ccc(-c3cnc(C(=O)Nc4ccc(C(=O)N5CCN(C(=O)CCC[N+](CCCCN)(CCCCN)CC(=O)O)CC5)c(Cl)c4)n3C)c(F)c2F)c1C` [Example P2, bis(4-aminobutyl)-(carboxymethyl)-[4-[4-[2-chloro-4-[[5-[2,3-difluoro-4-[1-(2-methoxyethyl)-5-methyl-pyrazol-4-yl]phenyl]-1-methyl-imidazole-2-carbonyl]amino]benzoyl]piperazin-1-yl]-4-oxo-butyl]ammonium; formate] was tested, and the IC90 was 66 nM.
